Assay results published in ChEMBL document CHEMBL1201862, “PubChem BioAssay data set” (2004).
The source made the active and inactive calls. Cut-off read from the data, not from the text of the source, for most assays here: actives have a measured EC50 and inactives only a lower limit.

Experiments:
[1] = biological target: T1, Protein skinhead-1 (Caenorhabditis elegans, UniProt P34707); format: functional
T1 sequence (P34707 whole entry): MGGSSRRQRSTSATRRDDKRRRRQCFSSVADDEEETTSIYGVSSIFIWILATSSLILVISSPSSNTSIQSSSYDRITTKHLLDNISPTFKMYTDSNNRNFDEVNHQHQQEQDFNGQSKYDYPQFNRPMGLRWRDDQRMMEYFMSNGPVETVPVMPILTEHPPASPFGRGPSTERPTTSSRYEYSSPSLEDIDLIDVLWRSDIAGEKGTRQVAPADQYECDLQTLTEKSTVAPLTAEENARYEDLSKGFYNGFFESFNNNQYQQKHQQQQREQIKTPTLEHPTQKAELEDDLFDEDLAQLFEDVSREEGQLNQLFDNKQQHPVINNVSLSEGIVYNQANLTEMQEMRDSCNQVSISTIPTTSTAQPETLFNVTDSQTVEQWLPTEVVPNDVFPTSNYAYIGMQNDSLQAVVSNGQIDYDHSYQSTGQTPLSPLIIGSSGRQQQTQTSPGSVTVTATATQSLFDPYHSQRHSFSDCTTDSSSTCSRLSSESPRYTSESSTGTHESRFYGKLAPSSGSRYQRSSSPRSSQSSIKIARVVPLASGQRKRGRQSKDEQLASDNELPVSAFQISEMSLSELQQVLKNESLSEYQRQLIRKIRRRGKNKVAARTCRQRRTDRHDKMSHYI

[2] = biological target: T2, Heat shock factor protein 1 (Mus musculus, UniProt P38532); test: inhibition of MG132-induced HSE-luciferase signal, confirmation, cell-based, NIH3T3, luminescence, dose retest (AID 2382); format: functional;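 note: NIH3T3 fibroblasts with HSF1-driven luciferase reporter stressed by proteasome inhibitor MG132; luminescence from HSF1-driven luciferase expression after 8 hours of MG132 stress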
T2 sequence (P38532 whole entry): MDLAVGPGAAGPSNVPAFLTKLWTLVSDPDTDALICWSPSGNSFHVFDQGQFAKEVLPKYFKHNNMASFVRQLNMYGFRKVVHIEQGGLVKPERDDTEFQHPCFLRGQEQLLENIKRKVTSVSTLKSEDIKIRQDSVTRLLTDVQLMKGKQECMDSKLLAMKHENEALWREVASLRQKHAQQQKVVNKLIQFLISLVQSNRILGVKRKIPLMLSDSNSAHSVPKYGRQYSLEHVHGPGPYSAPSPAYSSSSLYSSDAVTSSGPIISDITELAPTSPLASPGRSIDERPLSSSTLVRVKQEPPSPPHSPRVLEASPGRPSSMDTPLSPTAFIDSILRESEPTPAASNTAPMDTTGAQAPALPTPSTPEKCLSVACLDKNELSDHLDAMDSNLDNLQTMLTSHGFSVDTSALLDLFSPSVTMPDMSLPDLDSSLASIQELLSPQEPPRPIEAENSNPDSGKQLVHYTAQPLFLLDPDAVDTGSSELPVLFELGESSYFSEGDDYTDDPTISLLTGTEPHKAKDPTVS

[3] = cells; format: functional
[4] = biological target: T3, Corticotropin-releasing factor receptor 2/Corticotropin-releasing factor-binding protein (Homo sapiens, UniProt P24387+Q13324); test: activators of CRF receptor 2 with binding protein – uHTS hits, confirmation (AID 602473); format: functional; conditions: read-out: EC50_Mean
T3 sequence (Q13324 whole entry): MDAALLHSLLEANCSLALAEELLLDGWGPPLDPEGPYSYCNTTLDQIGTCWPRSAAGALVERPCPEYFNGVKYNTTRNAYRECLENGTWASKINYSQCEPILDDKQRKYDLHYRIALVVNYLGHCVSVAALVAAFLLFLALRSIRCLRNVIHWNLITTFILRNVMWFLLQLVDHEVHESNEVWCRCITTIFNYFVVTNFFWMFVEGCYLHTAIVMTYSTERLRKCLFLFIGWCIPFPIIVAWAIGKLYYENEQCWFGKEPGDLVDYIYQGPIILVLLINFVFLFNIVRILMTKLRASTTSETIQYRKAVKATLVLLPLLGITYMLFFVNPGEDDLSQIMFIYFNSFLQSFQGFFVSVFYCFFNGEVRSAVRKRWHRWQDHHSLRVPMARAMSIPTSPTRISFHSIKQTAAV
T3 sequence (P24387 whole entry): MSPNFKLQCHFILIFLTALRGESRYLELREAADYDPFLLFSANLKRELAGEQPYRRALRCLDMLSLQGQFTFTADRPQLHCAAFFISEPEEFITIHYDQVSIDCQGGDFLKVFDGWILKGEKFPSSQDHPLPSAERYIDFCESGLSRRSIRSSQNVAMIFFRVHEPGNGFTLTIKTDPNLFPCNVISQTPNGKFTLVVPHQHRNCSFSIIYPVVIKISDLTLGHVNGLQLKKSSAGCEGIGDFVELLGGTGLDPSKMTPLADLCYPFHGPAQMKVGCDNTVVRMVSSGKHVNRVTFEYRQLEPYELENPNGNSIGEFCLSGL

[5] = biological target: T3, Corticotropin-releasing factor receptor 2/Corticotropin-releasing factor-binding protein; test: Dose Response confirmation of uHTS hits for small molecule antagonists of the CRF-binding protein and CRF-R2 receptor complex.; format: functional; conditions: read-out: IC50_Mean
[6] = C. albicans growth with fluconazole, confirmation, fluorescence, retest (AID 2467); format: functional, cell-based
[7] = NIH-3T3 fibroblast cytotoxicity, dose response, cytotoxicity control, cell-based, fluorescence, Alamar Blue, secondary assay (AID 2327); format: functional;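 note: NIH-3T3 mouse fibroblasts cultured with fluconazole at 8 µg/mL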
[8] = biological target: Genome polyprotein (dengue virus type 2, UniProt P29990); test: Dengue-2 NS5 methyltransferase inhibitors, primary screen, biochemical, confirmation dose response (AID 588689); format: functional
Sequence of Genome polyprotein (P29990 2492-3391 limits assumed): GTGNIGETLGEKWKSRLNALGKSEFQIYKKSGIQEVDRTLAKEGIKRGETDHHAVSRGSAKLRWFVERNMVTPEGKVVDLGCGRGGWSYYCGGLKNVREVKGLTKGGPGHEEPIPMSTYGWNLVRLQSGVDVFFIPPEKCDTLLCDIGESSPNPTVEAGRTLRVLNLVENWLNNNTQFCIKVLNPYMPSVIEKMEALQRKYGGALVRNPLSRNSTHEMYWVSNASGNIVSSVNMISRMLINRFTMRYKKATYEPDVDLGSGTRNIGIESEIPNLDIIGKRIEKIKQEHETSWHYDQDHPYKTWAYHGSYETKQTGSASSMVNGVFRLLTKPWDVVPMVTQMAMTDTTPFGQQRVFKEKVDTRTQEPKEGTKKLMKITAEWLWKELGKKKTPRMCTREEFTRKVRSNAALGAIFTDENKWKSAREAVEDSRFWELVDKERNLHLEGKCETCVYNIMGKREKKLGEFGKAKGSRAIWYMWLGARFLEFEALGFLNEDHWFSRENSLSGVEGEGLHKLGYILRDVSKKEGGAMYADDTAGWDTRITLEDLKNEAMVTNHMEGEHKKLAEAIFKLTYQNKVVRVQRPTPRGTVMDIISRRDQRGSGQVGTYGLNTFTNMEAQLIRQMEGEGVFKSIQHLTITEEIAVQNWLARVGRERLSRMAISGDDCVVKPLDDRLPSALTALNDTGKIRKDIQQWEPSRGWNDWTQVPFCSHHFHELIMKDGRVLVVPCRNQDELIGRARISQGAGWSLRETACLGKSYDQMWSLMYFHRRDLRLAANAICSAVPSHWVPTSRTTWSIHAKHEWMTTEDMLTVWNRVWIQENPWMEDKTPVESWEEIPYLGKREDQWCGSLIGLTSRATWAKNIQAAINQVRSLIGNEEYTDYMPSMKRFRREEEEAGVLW

[9] = test system: BJ; test: cytotoxicity toward BJ-TERT-LT-ST fibroblasts, dose response, cell-based, RAS-independent, luminescence (AID 1935); format: functional; conditions: Homo sapiens;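 note: BJ fibroblasts immortalized with TERT plus LT and ST oncogenes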
[10] = biological target: T2, Heat shock factor protein 1; test: HSF1 potentiators in luciferase reporter cells, confirmation, cell-based, NIH3T3, luminescence, dose retest (AID 435004); format: functional;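 note: stress induced by proteasome inhibitor MG132 added 30 min after compound; luciferase reporter driven by HSF1 response element in NIH3T3 cells; actives raise luminescence as potentiators of the MG132 stress response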
[11] = cytotoxicity toward DRD oncogenic fibroblasts, dose response, cell-based, non-viral oncogenic, luminescence (AID 1934); format: functional; conditions: Homo sapiens
[12] = test system: BJ; test: cytotoxicity toward BJ-TERT fibroblasts, dose response, cell-based, RAS-independent, luminescence (AID 1933); format: functional; conditions: Homo sapiens
[13] = test system: BJ; test: cells; format: functional, cell-based; conditions: Homo sapiens
[14] = biological target: Glucose-6-phosphate 1-dehydrogenase (Homo sapiens, UniProt P11413); test: human G6PD enzyme inhibitors, dose response, selectivity assay for P. falciparum G6PD inhibitor project, biochemical, fluorescence (AID 504792); format: functional
Sequence of Glucose-6-phosphate 1-dehydrogenase (P11413 whole entry): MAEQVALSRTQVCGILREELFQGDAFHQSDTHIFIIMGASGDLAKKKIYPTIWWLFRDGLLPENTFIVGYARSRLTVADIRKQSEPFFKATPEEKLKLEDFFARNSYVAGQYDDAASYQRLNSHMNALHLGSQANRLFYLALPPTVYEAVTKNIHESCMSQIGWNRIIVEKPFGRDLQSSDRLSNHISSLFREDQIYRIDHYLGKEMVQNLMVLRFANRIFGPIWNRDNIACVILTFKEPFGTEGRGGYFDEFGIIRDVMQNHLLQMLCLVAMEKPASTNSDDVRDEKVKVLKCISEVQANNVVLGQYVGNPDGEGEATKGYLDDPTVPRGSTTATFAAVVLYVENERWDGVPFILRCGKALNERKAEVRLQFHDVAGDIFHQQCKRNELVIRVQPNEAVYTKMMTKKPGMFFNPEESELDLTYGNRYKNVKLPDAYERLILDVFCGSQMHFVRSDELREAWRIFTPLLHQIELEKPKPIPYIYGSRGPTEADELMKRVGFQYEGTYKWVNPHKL

[15] = biological target: T4, Rac GTPase-activating protein 1 (Homo sapiens, UniProt Q9H0H5); test: MgcRacGAP GTPase-activating activity inhibitors, confirmation, biochemical, ADP Hunter fluorescence, primary and confirmatory (AID 624330); format: functional
T4 sequence (Q9H0H5 whole entry): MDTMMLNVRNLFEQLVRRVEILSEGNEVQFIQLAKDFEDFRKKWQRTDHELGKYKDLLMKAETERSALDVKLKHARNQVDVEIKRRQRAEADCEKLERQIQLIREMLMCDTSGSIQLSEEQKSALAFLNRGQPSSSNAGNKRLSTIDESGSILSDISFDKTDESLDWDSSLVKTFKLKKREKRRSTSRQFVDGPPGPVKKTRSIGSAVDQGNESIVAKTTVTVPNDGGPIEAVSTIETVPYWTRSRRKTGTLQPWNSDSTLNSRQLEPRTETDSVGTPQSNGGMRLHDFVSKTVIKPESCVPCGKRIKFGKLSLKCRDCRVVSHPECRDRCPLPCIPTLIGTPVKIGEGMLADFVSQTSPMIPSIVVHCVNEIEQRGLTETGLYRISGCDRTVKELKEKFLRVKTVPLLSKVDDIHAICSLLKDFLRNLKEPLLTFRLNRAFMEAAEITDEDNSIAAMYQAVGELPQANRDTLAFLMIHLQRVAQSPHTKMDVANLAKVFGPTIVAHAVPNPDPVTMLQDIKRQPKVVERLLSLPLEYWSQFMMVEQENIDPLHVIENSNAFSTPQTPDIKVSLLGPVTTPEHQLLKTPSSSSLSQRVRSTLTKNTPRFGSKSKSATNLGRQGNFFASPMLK

[16] = test system: INS1; test: beta cell apoptosis inhibitors, cytokine rescue, dose response, luminescence, retest (AID 449756); format: functional, cell-based; conditions: Rattus norvegicus, INS1;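 note: cell death triggered by IL-1 beta plus TNF-alpha plus IFN-gamma mixture; protective hits raise ATP signal compared with cytokine alone wells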

For `c1ccc(OCCSc2nc3ccccc3o2)cc1`, the IC50 [1] was 32.4 µM (active) and the EC50 [2] was > 195 µM (not active).

In the case of `Cc1ccc(OC(=O)c2sc3ncn(C)c(=O)c3c2C)cc1`, the IC50 [3] is reported as 15.2 µM (active).

In the case of `CCCCC(=O)NCc1ccc2c(c1)cc(C)n2C`, the IC50 [1] is reported as > 100 µM (inactive).

With `CN(C(=O)COC(=O)CCc1nc2ccccc2c(=O)[nH]1)C1CCS(=O)(=O)C1` (stereo not given) the EC50 [4] was > 53 µM (inactive) and the IC50 [5] was 40.1 µM (active).

With `Cc1ccc(C(=O)CC(=O)COc2ccc(Cl)cc2)cc1` the EC50 [6] was 1.62 µM (active) and the EC50 [7] was > 150 µM (inconclusive).

In the case of `O=C(Nc1ccccc1)Nc1csc2ccccc12`, the IC50 [1] is reported as > 100 µM (inactive).

For `O=C(O)c1ccc2c(c1Nc1ccccc1)C(=O)c1ccccc1C2=O`, the IC50 [8] was > 100 µM (active).

For `NC(=NOCC(=O)Nc1ccccc1)c1nonc1N`, the EC50 [4] was > 53 µM (inactive) and the IC50 [5] was > 47.1 µM (inactive).

In the case of `O=C1/C(=C/c2ccccc2Cl)SC(=S)N1CCC(=O)N1CCCCC1CCO` (stereo not given), the EC50 [9] is reported as > 150 µM (not active), the EC50 [10] is reported as > 260 µM (inactive) and the EC50 [11] is reported as 45.3 µM (active). For the same compound, the EC50 [12] was 19 µM (active) and the EC50 [13] was > 150 µM (inconclusive).

With `O=C(NN=Cc1cc(Br)c(O)c(Br)c1)c1ccccc1NS(=O)(=O)c1cccs1` the IC50 [8] was 27.7 µM (active).

With `O=C(Cn1nc(Cl)nc1Cl)Nc1ccccc1` the EC50 [4] was > 53 µM (inactive) and the IC50 [5] was > 47.1 µM (inactive).

For `CCn1c(COc2ccc(=O)n(-c3ccccc3)n2)nnc1SCc1cccc(OC)c1`, the EC50 [6] was > 38 µM (not active) and the EC50 [7] was > 160 µM (inactive).

With `COc1ccc(C(O)(C(=O)NNc2ccc(C)cc2)c2cccs2)cc1` (stereo not given) the EC50 [10] was > 260 µM (inactive), the EC50 [6] was > 38 µM (not active) and the EC50 [7] was > 160 µM (inactive).

For `O=c1[nH]c2ccc(NCc3ccccc3OCc3ccc(Cl)cc3)cc2[nH]1`, the IC50 [14] was > 80 µM (inactive).

For `CCOC(=O)C(C)On1c(-c2ccc(Cl)cc2)nc2ccc([N+](=O)[O-])cc21` (stereo not given), the IC50 [1] was > 100 µM (inactive).

With `COc1cccc(C(=O)C2CCCN(Cc3cccc4c3OCO4)C2)c1` (stereo not given) the EC50 [6] was > 38 µM (not active) and the EC50 [7] was > 160 µM (inactive).

For `CS(=O)(=O)N1CCN(C(=O)COc2ccc3ccccc3c2)CC1`, the EC50 [4] was > 53 µM (inactive) and the IC50 [5] was > 47.1 µM (inactive).

In the case of `CC(C)OP(=O)(c1ccc(N(C)C)cc1)C(O)c1ccccc1` (stereo not given), the EC50 [6] is reported as 3.06 µM (active) and the EC50 [7] is reported as > 160 µM (inconclusive).

With `Cc1ccc(C(C2=C(O)CC(C)(C)CC2=O)C2C(=O)CC(C)(C)CC2=O)o1` (stereo not given) the IC50 [8] was 60 µM (active) and the IC50 [15] was 56.4 µM (active).

With `Cc1ccc2nc(C)c3c(c2c1)SCC3` the IC50 [3] was 24.6 µM (active).

In the case of `Cc1c(C(=O)NNC(=O)c2csc(N3CCOCC3)n2)oc2ccccc12`, the IC50 [3] is reported as 13.2 µM (active).

With `COC(=O)COc1cccc(NC(=O)c2cccc(C)c2)c1` the IC50 [3] was 17.6 µM (active).

For `O=S(=O)(c1ccc(F)cc1)n1ccc(-c2cccc(OCc3c(F)cccc3Cl)c2)n1`, the IC50 [1] was > 100 µM (inactive).

For `N=c1oc2ccccc2cc1C(=O)NC1CCCCCC1`, the IC50 [3] was > 50 µM (active).

For `O=C1/C(=C/c2cccs2)SC(=S)N1CC(=O)N1CCCCC1CCO` (stereo not given), the IC50 [1] was > 100 µM (inactive).

For `COc1cc(NC(=O)[C@H](C)NC(=O)N2CCn3c2nc2ccccc23)cc(OC)c1`, the EC50 [4] was > 53 µM (inactive) and the IC50 [5] was > 47.1 µM (inactive).

In the case of `Cc1cccc(NC(=O)Cc2ccc(NC3=NC4CS(=O)(=O)CC4S3)cc2)c1` (stereo not given), the EC50 [4] is reported as > 53 µM (inactive) and the IC50 [5] is reported as > 47.1 µM (inactive).

For `COc1cc(NCCCn2ccc(NC(=O)OCc3ccccc3)nc2=O)cc(OC)c1OC`, the IC50 [14] was > 80 µM (inactive).

For `CCN(C(=O)CCc1nnc2ccc(N3CCC4(CC3)OCCO4)nn12)c1ccccc1`, the EC50 [4] was > 53 µM (inactive) and the IC50 [5] was > 47.1 µM (inactive).

For `CCN(CC)c1ccc(/N=C/c2ccc([N+](=O)[O-])o2)cc1`, the EC50 [6] was > 38 µM (not active), the AC50 [16] was 43.9 µM (active) and the EC50 [7] was > 150 µM (inactive).

With `CCC(=O)c1ccc(OCC(=O)NCCCN2CCOCC2)cc1` the EC50 [4] was > 53 µM (inactive) and the IC50 [5] was > 47.1 µM (inactive).

In the case of `C/C(=N/Nc1ccc(C)cc1)C1(C)N(O)C(C)(C)C(c2ccco2)=[N+]1[O-]` (stereo not given), the EC50 [6] is reported as > 38 µM (not active) and the EC50 [7] is reported as 66.1 µM (inconclusive).
